Data as given in article PMC7168933, “Design, Synthesis and Biochemical Evaluation of Novel Ethanoanthracenes and Related Compounds to Target Burkitt’s Lymphoma” (Pharmaceuticals, 2020).

Columns and labels:
[1] = tested on: MUTU-1 Burkitt lymphoma cell line (EBV+); assay: cells; conditions: Mutu-1, 24 h; for viability at 1 µM: read-out: MUTU-1 Cell Viability % 1 μM, 1 μM, 24 h; for viability at 10 µM: read-out: MUTU-1 Cell Viability % 10 μM, 10 μM, 24 h; for IC50: read-out: IC50 MUTU-I 24 h
[2] = tested on: DG-75 Burkitt lymphoma cell line (EBV−, chemoresistant); assay: cells; conditions: Homo sapiens, DG-75, 48 h; for viability at 1 µM: read-out: DG-75 Cell Viability % 1 μM, 1 μM, 48 h; for viability at 10 µM: read-out: DG-75 Cell Viability % 10 μM, 10 μM, 48 h

O=C1NC(=O)C2C1C1c3ccccc3C2(O)c2ccccc21 (centres unmarked) [Compound 21k, 9-Hydroxy-9,10-dihydro-9,10-[3,4]epipyrroloanthracene-12,14-dione]
melting point: 253 to 255 °C
viability at 1 µM [1]: 104%
viability at 10 µM [1]: 100%
viability at 1 µM [2]: 65.9%
viability at 10 µM [2]: 80.9%

CC/C(=C\C12c3ccccc3C(c3ccccc31)C1C(=O)N(Cc3ccccc3)C(=O)C12)[N+](=O)[O-] (centres unmarked) [Compound 17k, (E)-13-Benzyl-9-(2-nitrobut-1-en-1-yl)-9,10-dihydro-9,10-[3,4]epipyrroloanthracene-12,14-dione]
melting point: 188 to 199 °C
viability at 1 µM [1]: 80.4%
viability at 10 µM [1]: 94%
viability at 1 µM [2]: 74.8%
viability at 10 µM [2]: 96%

CC/C(=C\C12c3ccccc3C(c3ccccc31)C1C(=O)NC(=O)C12)[N+](=O)[O-] (centres unmarked) [Compound 13i, (E)-9-(2-Nitrobut-1-en-1-yl)-9,10-dihydro-9,10-[3,4]epipyrroloanthracene-12,14-dione]
melting point: 296 to 298 °C
viability at 1 µM [1]: 91.1%
viability at 10 µM [1]: 73%
viability at 1 µM [2]: 96.3%
viability at 10 µM [2]: 89.4%

O=C1OC(=O)C2C1C1c3ccccc3C2(CC[N+](=O)[O-])c2ccccc21 (centres unmarked) [Compound 14a, 9-(2-Nitroethyl)-9,10-dihydro-9,10-[3,4]furanoanthracene-12,14-dione]
melting point: 242 to 244 °C
viability at 1 µM [1]: 76.7%
viability at 10 µM [1]: 99.3%
viability at 1 µM [2]: 83%
viability at 10 µM [2]: 102%

CC/C(=C\C12c3ccccc3C(Cl)(c3ccccc31)C1C(=O)NC(=O)C12)[N+](=O)[O-] (centres unmarked) [Compound 13l, (E)-9-Chloro-10-(2-nitrobut-1-en-1-yl)-9,10-dihydro-9,10-[3,4]epipyrroloanthracene-12,14-dione]
melting point: 294 to 298 °C
viability at 1 µM [1]: 88.6%
viability at 10 µM [1]: 88.3%
viability at 1 µM [2]: 90%
viability at 10 µM [2]: 102%

N#C/C=C/C12c3ccccc3C(c3ccccc31)C1C(=O)OC(=O)C12 (centres unmarked) [Compound 23a, (E)-3-(12,14-Dioxo-9,10-[3,4]furanoanthracen-9(10H)-yl)acrylonitrile]
melting point: 215 to 219 °C
viability at 1 µM [1]: 82.7%
viability at 10 µM [1]: 82.6%
viability at 1 µM [2]: 89%
viability at 10 µM [2]: 75.8%

C/C(=C\C12c3ccccc3C(Cl)(c3ccccc31)C1C(=O)N(c3ccccc3)C(=O)C12)[N+](=O)[O-] (centres unmarked) [Compound 17g, (E)-9-Chloro-10-(2-nitroprop-1-en-1-yl)-13-phenyl-9,10-dihydro-9,10-[3,4]epipyrroloanthracene-12,14-dione]
melting point: 268 to 271 °C
viability at 1 µM [1]: 88%
viability at 10 µM [1]: 78.5%
viability at 1 µM [2]: 85.3%
viability at 10 µM [2]: 84.3%

O=C1C2C3c4ccccc4C(/C=C/[N+](=O)[O-])(c4ccccc43)C2C(=O)N1c1cccc(Cl)c1 (centres unmarked) [Compound 16k, (E)-13-(3-Chlorophenyl)-9-(2-nitrovinyl)-9,10-dihydro-9,10-[3,4]epipyrroloanthracene-12,14-dione]
melting point: 258 to 261 °C
viability at 1 µM [1]: 2.7%
viability at 10 µM [1]: 0.84%
viability at 1 µM [2]: 69%
viability at 10 µM [2]: 0%

N#CC(C#N)=CC12c3ccccc3C(c3ccccc31)C1C(=O)N(c3ccccc3)C(=O)C12 (centres unmarked) [Compound 23f, 2-((12,14-Dioxo-13-phenyl-9,10-[3,4]epipyrroloanthracen-9(10H)-yl)methylene)malononitrile]
melting point: 255 to 258 °C
viability at 1 µM [1]: 78.9%
viability at 10 µM [1]: 71.8%
viability at 1 µM [2]: 82%
viability at 10 µM [2]: 81.6%

CC(=O)Oc1cccc(N2C(=O)C3C4c5ccccc5C(/C=C/[N+](=O)[O-])(c5ccccc54)C3C2=O)c1 (centres unmarked) [Compound 16m, (E)-3-(9-(2-Nitrovinyl)-12,14-dioxo-9,10-dihydro-9,10-[3,4]epipyrroloanthracen-13-yl)phenyl acetate]
melting point: 246 to 248 °C
IC50 [1]: 230 nM
viability at 1 µM [1]: 2%
viability at 10 µM [1]: 1.2%
viability at 1 µM [2]: 35.9%
viability at 10 µM [2]: 0%

CC/C(=C\C12c3ccccc3C(c3ccccc31)C1C(=O)N(c3ccc(Cl)cc3)C(=O)C12)[N+](=O)[O-] (centres unmarked) [Compound 17d, (E)-13-(4-Chlorophenyl)-9-(2-nitrobut-1-en-1-yl)-9,10-dihydro-9,10-[3,4]epipyrroloanthracene-12,14-dione]
melting point: 275 to 279 °C
viability at 1 µM [1]: 102%
viability at 10 µM [1]: 99.9%
viability at 1 µM [2]: 96.6%
viability at 10 µM [2]: 78.4%

Nc1ccc(N2C(=O)C3C4c5ccccc5C(/C=C/[N+](=O)[O-])(c5ccccc54)C3C2=O)cc1 (centres unmarked) [Compound 16n, (E)-13-(4-Aminophenyl)-9-(2-nitrovinyl)-9,10-dihydro-9,10-[3,4]epipyrroloanthracene-12,14-dione]
melting point: > 300 °C
IC50 [1]: 300 nM
viability at 1 µM [1]: 1.7%
viability at 10 µM [1]: 3.7%
viability at 1 µM [2]: 20.8%
viability at 10 µM [2]: 0.18%

O=C1C2C3c4ccccc4C(CC[N+](=O)[O-])(c4ccccc43)C2C(=O)N1c1ccccc1 (centres unmarked) [Compound 14c, 9-(2-Nitroethyl)-13-phenyl-9,10-dihydro-9,10-[3,4]epipyrroloanthracene-12,14-dione]
melting point: 248 to 250 °C
viability at 1 µM [1]: 75.5%
viability at 10 µM [1]: 79.2%
viability at 1 µM [2]: 75.7%
viability at 10 µM [2]: 81.4%

O=C1C2C3c4ccccc4C(/C=C/[N+](=O)[O-])(c4ccccc43)C2C(=O)N1c1ccc(F)cc1 (centres unmarked) [Compound 16e, (E)-13-(4-Fluorophenyl)-9-(2-nitrovinyl)-9,10-dihydro-9,10-[3,4]epipyrroloanthracene-12,14-dione]
melting point: 242 to 243 °C
IC50 [1]: 250 nM
viability at 1 µM [1]: 0.07%
viability at 10 µM [1]: 1.4%
viability at 1 µM [2]: 35.4%
viability at 10 µM [2]: 2.3%

COC(=O)c1ccc(N2C(=O)C3C4c5ccccc5C(/C=C/[N+](=O)[O-])(c5ccccc54)C3C2=O)cc1 (centres unmarked) [Compound 16h, Methyl (E)-4-(9-(2-nitrovinyl)-12,14-dioxo-9,10-dihydro-9,10-[3,4]epipyrroloanthracen-13-yl)benzoate]
melting point: 254 to 255 °C
IC50 [1]: 200 nM
viability at 1 µM [1]: 2.3%
viability at 10 µM [1]: 0.79%
viability at 1 µM [2]: 20.8%
viability at 10 µM [2]: 0.18%

CC/C(=C\C12c3ccccc3C(c3ccccc31)C1C(=O)N(c3ccc(OC)cc3)C(=O)C12)[N+](=O)[O-] (centres unmarked) [Compound 17f]
melting point: 254 to 256 °C
viability at 1 µM [1]: 86.5%
viability at 10 µM [1]: 84.5%
viability at 1 µM [2]: 91.4%
viability at 10 µM [2]: 85.1%

C/C(=C\C12c3ccccc3C(Cl)(c3ccccc31)C1C(=O)NC(=O)C12)[N+](=O)[O-] (centres unmarked) [Compound 13k, (E)-9-Chloro-10-(2-nitroprop-1-en-1-yl)-9,10-dihydro-9,10-[3,4]epipyrroloanthracene-12,14-dione]
melting point: 295 to 297 °C
viability at 1 µM [1]: 83.3%
viability at 10 µM [1]: 51.6%
viability at 1 µM [2]: 78.2%
viability at 10 µM [2]: 101%

CC(=O)OC1(C#N)CC2c3ccccc3C1(/C=C/[N+](=O)[O-])c1ccccc12 (centres unmarked) [Compound 19d, (E)-11-Cyano-10-(2-nitrovinyl)-9,10-dihydro-9,10-ethanoanthracen-11-yl acetate]
melting point: 168 to 170 °C
viability at 1 µM [1]: 48.9%
viability at 10 µM [1]: 0.69%
viability at 1 µM [2]: 99.4%
viability at 10 µM [2]: 1%

O=[N+]([O-])CCC12c3ccccc3C(c3ccccc31)c1ccccc12 [Compound 20e, 9-(2-Nitroethyl)-9,10-dihydro-9,10-[1,2]benzenoanthracene]
melting point: 185 to 187 °C
viability at 1 µM [1]: 98.9%
viability at 10 µM [1]: 111%
viability at 1 µM [2]: 97.6%
viability at 10 µM [2]: 97.2%

COC(=O)C1C2c3ccccc3C(/C=C/[N+](=O)[O-])(c3ccccc32)C1C(=O)OC (centres unmarked) [Compound 19e, Dimethyl (E)-9-(2-nitrovinyl)-9,10-dihydro-9,10-ethanoanthracene-11,12-dicarboxylate]
melting point: 141 to 143 °C
viability at 1 µM [1]: 84.7%
viability at 10 µM [1]: 10.7%
viability at 1 µM [2]: 102%
viability at 10 µM [2]: 10.3%

N#CC(C#N)=CC12c3ccccc3C(c3ccccc31)C1C(=O)NC(=O)C12 (centres unmarked) [Compound 23e, 2-((12,14-Dioxo-9,10-[3,4]epipyrroloanthracen-9(10H)-yl)methylene)malononitrile]
melting point: 281 to 284 °C
viability at 1 µM [1]: 82.9%
viability at 10 µM [1]: 83.6%
viability at 1 µM [2]: 85.7%
viability at 10 µM [2]: 98.7%

N#CC(C#N)=CC12c3ccccc3C(c3ccccc31)C1C(=O)OC(=O)C12 (centres unmarked) [Compound 23d, 2-((12,14-Dioxo-9,10-[3,4]furanoanthracen-9(10H)-yl)methylene)malononitrile]
melting point: 196 to 198 °C
viability at 1 µM [1]: 99.8%
viability at 10 µM [1]: 82.7%
viability at 1 µM [2]: 103%
viability at 10 µM [2]: 95.7%

CCOC(=O)C1C2c3ccccc3C(/C=C/[N+](=O)[O-])(c3ccccc32)C1C(=O)OCC (centres unmarked) [Compound 19f, Diethyl (E)-9-(2-nitrovinyl)-9,10-dihydro-9,10-ethanoanthracene-11,12-dicarboxylate]
melting point: 151 to 152 °C
IC50 [1]: 550 nM
viability at 1 µM [1]: 13.6%
viability at 10 µM [1]: 13.8%
viability at 1 µM [2]: 13.9%
viability at 10 µM [2]: 13.8%

O=C1NC(=O)C2C1C1c3ccccc3C2(CC[N+](=O)[O-])c2ccccc21 (centres unmarked) [Compound 14b, 9-(2-Nitroethyl)-9,10-dihydro-9,10-[3,4]epipyrroloanthracene-12,14-dione]
melting point: 295 to 297 °C
viability at 1 µM [1]: 58.5%
viability at 10 µM [1]: 95%
viability at 1 µM [2]: 79.3%
viability at 10 µM [2]: 101%
